From patent publication US11629171B2, “Beta-hairpin peptidomimetics” (POLYPHOR AG, priority 2017, dated 2023) come the findings set out here.

What all share (format): cell-based
Data set [1] has as its system Acinetobacter baumannii DSM 30008. The conditions noted are these: DSM 30008. How it is done: (§1) The in vitro antimicrobial activities of the peptides were determined in 96-well plates (Greiner, polystyrene) by the standard CLSI broth microdilution method (Clinical and Laboratory Standards Institute 2014. Performance standards for antimicrobial susceptibility testing, 24th informational supplement. Approved standard CLSI M100-S24; Clinical and Laboratory Standards Institute, Wayne, Pa.). The following microorganisms were used to determine antibiotic activity of the peptides: Escherichia coli ATCC 25922, Klebsiella pneumoniae SSI #3010^a), Acinetobacter baumannii DSM 30008, Pseudomonas aeruginosa ATCC 27853 and the clinical isolates Escherichia coli 926415^b), Klebsiella pneumoniae 968733^b), Acinetobacter baumannii 872842^b), Enterobacter cloacae 848840^b) and Escherichia coli MCR-1 Af45^c). Before preparation of inocula, Escherichia coli MCR-1 Af45 was subcultured on Mueller-Hinton II (MH-cation adjusted) agar containing 2 μg/mL colistin. ^a) Obtained from Statens Serum Institut (SSI), Copenhagen, Denmark^b) Obtained from International Health Management Associates, Inc. (IHMA Europe Sàrl), Epalinges, Switzerland^c) Obtained from Prof. Patrice Nordmann, University of Fribourg, Fribourg, Switzerland
(§2) Inocula of the microorganisms were diluted into Mueller-Hinton II (MH-cation adjusted) broth and compared with a 0.5 McFarland standard to give appr. 10^6 colony forming units (CFU)/mL. Aliquots (90 μL) of inoculum were added to 10 μL of MH-II broth+P-80 (Polysorbate 80, 0.002% final concentration, v/v) containing the peptide in serial two-fold dilutions. Antimicrobial activities of the peptides were expressed as the minimal inhibitory concentration (MIC) in μg/mL at which no visible growth was observed after 18-20 hours of incubation at 35° C.

In data set [2] the test system is Escherichia coli ATCC 25922. The conditions noted are these: ATCC 25922. The procedure: as §1, §2
Data set [3] has as its system Klebsiella pneumoniae SSI #3010. As to conditions: SSI #3010. How it is done: as §1, §2
Data set [4] deals with Pseudomonas aeruginosa ATCC 27853. As to conditions: ATCC 27853. The procedure: as §1, §2
Data set [5] has as its system human red blood cells (hRBC). Put plainly: Hemolysis. As to conditions: red cells of human, 1 h, 200. The procedure:
The peptides were tested for their hemolytic activity against human red blood cells (hRBC). Fresh hRBC were washed four times with phosphate buffered saline (PBS) and centrifuged for 10 min at 3000×g. Compounds (200 μg/mL) were incubated with 20% hRBC (v/v) for 1 h at 37° C. and shaking at 300 rpm. A value of 0% and 100% cell lysis, respectively, was determined by incubation of hRBC in the presence of PBS containing 10% water and 2% Triton X-100 in H2O, respectively. The samples were centrifuged, the supernatants were ˜7.5-fold diluted in PBS buffer and the optical densities (OD) were measured at 540 nm and blank corrected. The 100% lysis value (OD540Triton X-100) gave an OD540 of approximately 0.5-1.0.
Percent hemolysis was calculated as follows: (OD540peptide/OD540Triton X-100)×100%.

Converted amounts (≈) assume the structure as drawn. Where a SMILES comes first, the peptide text is derived from it. Bridges are numbered along the chain shown (N, C = ends). Roman numbers before positions name the chains, in order. [ ]: non-standard residue; d: D form. Tle = CC(C)(C)[C@H](N)C(=O)O; NMeV = CN[C@H](C(=O)O)C(C)C; dDab = NCC[C@@H](N)C(=O)O; hSer = N[C@@H](CCO)C(=O)O; Orn = NCCC[C@H](N)C(=O)O; Dab = NCC[C@H](N)C(=O)O; Dap = NC[C@H](N)C(=O)O Bounds are passed on as bounds.

Turning to `CC(=O)N[C@@H](CCN)C(=O)N[C@H](C(=O)N[C@@H](CN)C(=O)N[C@@H](Cc1ccc(O)cc1)C(=O)N[C@H]1CSSC[C@@H](C(=O)N[C@H](C(N)=O)C(C)(C)C)NC(=O)[C@H](Cc2c[nH]c3ccccc23)NC(=O)[C@H](CO)NC(=O)[C@@H](CCN)NC(=O)[C@H](CCC(=O)N[C@@H](CCN)C(=O)N[C@H](C(=O)N[C@@H](CN)C(=O)N[C@H]2CCNC(=O)[C@H]([C@@H](C)O)NC(=O)[C@H](CCN)NC(=O)[C@H](CCN)NC(=O)[C@H](CC(C)C)NC(=O)[C@@H](CC(C)C)NC(=O)[C@H](CCN)NC2=O)[C@@H](C)O)NC1=O)C(C)C` [Ex. 13] (I: Ac-[Dab]V[Dap]YCE[dDab]SWC[Tle]-NH2 / II: [Dab]T[Dap][Dab][Dab][dL]L[Dab][Dab]T; disulfide I:5-I:10; amide I:6-II:N; lactam II:4-II:C), the MIC in data set [1], in data set [2], in data set [3] and in data set [4] was 0.125 µg/mL (≈ 0.0538 µM) throughout. In data set [5], the “Hemolysis at 200 μg/mL” value is under 1%.
As to `CC(=O)N[C@H](C(=O)N[C@@H](CCN)C(=O)N[C@@H](Cc1ccc(O)cc1)C(=O)N[C@@H](CN)C(=O)N[C@@H](CCC(=O)N[C@@H](CCN)C(=O)N[C@H](C(=O)N[C@@H](CN)C(=O)N[C@H]1CCNC(=O)[C@H]([C@@H](C)O)NC(=O)[C@H](CCN)NC(=O)[C@H](CCN)NC(=O)[C@H](CC(C)C)NC(=O)[C@@H](CC(C)C)NC(=O)[C@H](CCN)NC1=O)[C@@H](C)O)C(=O)N[C@H](CCN)C(=O)N[C@@H](CO)C(=O)N[C@@H](Cc1c[nH]c2ccccc12)C(=O)N[C@@H](CO)C(=O)N[C@H](C(=O)N[C@@H](CCC(=O)O)C(=O)N[C@@H](CO)C(N)=O)C(C)(C)C)C(C)C` [Ex. 229] (I: Ac-V[Dab]Y[Dap]E[dDab]SWS[Tle]ES-NH2 / II: [Dab]T[Dap][Dab][Dab][dL]L[Dab][Dab]T; amide I:5-II:N; lactam II:4-II:C), the MIC in data set [1] stood at 0.5 µg/mL (≈ 0.206 µM); in data set [2], 0.125 µg/mL (≈ 0.0516 µM); in data set [3], 0.125 µg/mL (≈ 0.0516 µM); in data set [4], 0.5 µg/mL (≈ 0.206 µM). Moreover, the “Hemolysis at 200 μg/mL” value in data set [5] amounted to 2%.
With `CC(=O)N[C@@H](CCN)C(=O)N[C@H](C(=O)N[C@H](C(=O)N[C@@H](Cc1ccc(O)cc1)C(=O)N[C@H]1CSSC[C@@H](C(=O)N[C@H](C(=O)N[C@@H](CCN)C(N)=O)C(C)(C)C)NC(=O)[C@H](Cc2c[nH]c3ccccc23)NC(=O)[C@H](CO)NC(=O)[C@@H](CCN)NC(=O)[C@H](CCC(=O)N[C@@H](CCN)C(=O)N[C@H](C(=O)N[C@@H](CN)C(=O)N[C@H]2CCNC(=O)[C@H]([C@@H](C)O)NC(=O)[C@H](CCN)NC(=O)[C@H](CCN)NC(=O)[C@H](CC(C)C)NC(=O)[C@@H](CC(C)C)NC(=O)[C@H](CCN)NC2=O)[C@@H](C)O)NC1=O)[C@@H](C)O)C(C)C` [Ex. 218] (I: Ac-[Dab]VTYCE[dDab]SWC[Tle][Dab]-NH2 / II: [Dab]T[Dap][Dab][Dab][dL]L[Dab][Dab]T; disulfide I:5-I:10; amide I:6-II:N; lactam II:4-II:C), the MIC in data set [1], in data set [2], in data set [3] and in data set [4] was 0.125 µg/mL (≈ 0.0512 µM) each time. Also, in data set [5], the “Hemolysis at 200 μg/mL” value is on record as under 1%.
As to `CC(=O)N[C@H](C(=O)N[C@H](C(=O)N[C@@H](Cc1ccc(O)cc1)C(=O)N[C@@H](CCN)C(=O)N[C@@H](CCC(=O)N[C@@H](CCN)C(=O)N[C@H](C(=O)N[C@@H](CN)C(=O)N[C@H]1CCNC(=O)[C@H]([C@@H](C)O)NC(=O)[C@H](CCN)NC(=O)[C@H](CCN)NC(=O)[C@H](CC(C)C)NC(=O)[C@@H](CC(C)C)NC(=O)[C@H](CCN)NC1=O)[C@@H](C)O)C(=O)N[C@H](CCN)C(=O)N[C@H](C(=O)N[C@@H](Cc1c[nH]c2ccccc12)C(=O)N[C@@H](CCC(=O)O)C(=O)N[C@H](C(=O)N[C@@H](C)C(=O)N[C@@H](CO)C(N)=O)C(C)(C)C)[C@@H](C)O)[C@@H](C)O)C(C)C` [Ex. 230] (I: Ac-VTY[Dab]E[dDab]TWE[Tle]AS-NH2 / II: [Dab]T[Dap][Dab][Dab][dL]L[Dab][Dab]T; amide I:5-II:N; lactam II:4-II:C), the minimal inhibitory concentration (MIC) in data set [1] was 1 µg/mL (≈ 0.41 µM); in data set [2], 0.25 µg/mL (≈ 0.103 µM); in data set [3] it was 0.5 µg/mL (≈ 0.205 µM); in data set [4], 1 µg/mL (≈ 0.41 µM). For the same compound, in data set [5], the “Hemolysis at 200 μg/mL” value is under 1%.
As to `CC(=O)N[C@H](C(=O)N[C@H](C(=O)N[C@@H](Cc1ccc(O)cc1)C(=O)N[C@H]1CC(=O)NCC[C@@H](C(=O)N[C@H](C(=O)N[C@@H](C)C(=O)N[C@@H](CO)C(N)=O)C(C)C)NC(=O)[C@H](Cc2c[nH]c3ccccc23)NC(=O)[C@H](CCO)NC(=O)[C@@H](CCN)NC(=O)[C@H](CCC(=O)N[C@@H](CCN)C(=O)N[C@H](C(=O)N[C@@H](CCN)C(=O)N[C@H]2CCNC(=O)[C@H]([C@@H](C)O)NC(=O)[C@H](CCN)NC(=O)[C@H](CCN)NC(=O)[C@H](CC(C)C)NC(=O)[C@@H](CC(C)C)NC(=O)[C@H](CCN)NC2=O)[C@@H](C)O)NC1=O)[C@@H](C)O)C(C)C` [Ex. 187] (I: Ac-VTYDE[dDab][hSer]W[Dab]VAS-NH2 / II: [Dab]T[Dab][Dab][Dab][dL]L[Dab][Dab]T; lactam I:4-I:9, II:4-II:C; amide I:5-II:N), the minimal inhibitory concentration (MIC) in data set [1] was determined as 0.5 µg/mL (≈ 0.208 µM); in data set [2], 0.125 µg/mL (≈ 0.052 µM); in data set [3], 0.25 µg/mL (≈ 0.104 µM); in data set [4] it was 0.5 µg/mL (≈ 0.208 µM). For the same compound, the “Hemolysis at 200 μg/mL” value in data set [5] is on record as under 1%.
As for `CC(=O)N[C@H](C(=O)N[C@H]1CCCNC(=O)[C@@H](CCCCN)NC(=O)[C@H](C(C)(C)C)NC(=O)[C@H](CO)NC(=O)[C@H](Cc2c[nH]c3ccccc23)NC(=O)[C@H](CCO)NC(=O)[C@@H](CCN)NC(=O)[C@H](CCC(=O)N[C@@H](CCN)C(=O)N[C@H](C(=O)N[C@@H](CN)C(=O)N[C@H]2CCNC(=O)[C@H]([C@@H](C)O)NC(=O)[C@H](CCN)NC(=O)[C@H](CCN)NC(=O)[C@H](CC(C)C)NC(=O)[C@@H](CC(C)C)NC(=O)[C@H](CCN)NC2=O)[C@@H](C)O)NC(=O)[C@H](CO)NC(=O)[C@H](Cc2ccc(O)cc2)NC1=O)C(C)C` [Ex. 30] (I: Ac-V[Orn]YSE[dDab][hSer]WS[Tle][dK] / II: [Dab]T[Dap][Dab][Dab][dL]L[Dab][Dab]T; lactam I:2-I:C, II:4-II:C; amide I:5-II:N), the MIC in data set [1] is 0.125 µg/mL (≈ 0.0532 µM); in data set [2], 0.0625 µg/mL (≈ 0.0266 µM); in data set [3], 0.125 µg/mL (≈ 0.0532 µM); in data set [4], 0.25 µg/mL (≈ 0.106 µM). The “Hemolysis at 200 μg/mL” value in data set [5] is recorded as under 1%.
With `CN[C@H](C(=O)N[C@@H](CN)C(=O)N[C@@H](Cc1ccc(O)cc1)C(=O)N[C@H]1CSSC[C@@H](C(=O)N[C@H](C(=O)N[C@@H](C)C(=O)N[C@@H](CO)C(N)=O)C(C)(C)C)NC(=O)[C@H](Cc2c[nH]c3ccccc23)NC(=O)[C@H]([C@@H](C)O)NC(=O)[C@@H](CCN)NC(=O)[C@H](CCC(=O)N[C@@H](CCN)C(=O)N[C@H](C(=O)N[C@@H](CCN)C(=O)N[C@H]2CCNC(=O)[C@H]([C@@H](C)O)NC(=O)[C@H](CCN)NC(=O)[C@H](CCN)NC(=O)[C@H](CC(C)C)NC(=O)[C@@H](CC(C)C)NC(=O)[C@H](CCN)NC2=O)[C@@H](C)O)NC1=O)C(C)C` [Ex. 180] (I: H-[NMeV][Dap]YCE[dDab]TWC[Tle]AS-NH2 / II: [Dab]T[Dab][Dab][Dab][dL]L[Dab][Dab]T; disulfide I:4-I:9; amide I:5-II:N; lactam II:4-II:C), the minimal inhibitory concentration (MIC) in data set [1] came out at 0.25 µg/mL (≈ 0.105 µM); in data set [2] it was 0.125 µg/mL (≈ 0.0525 µM); in data set [3], 0.5 µg/mL (≈ 0.21 µM); in data set [4], 0.125 µg/mL (≈ 0.0525 µM). In data set [5], the “Hemolysis at 200 μg/mL” value is reported as under 1%.
